This note sets out measurements from ChEMBL document CHEMBL6078689, “Discovery of novel biaryl urea derivatives against IL-1β release with low toxicity based on NEK7 inhibitor” (Eur J Med Chem, 2025).

The source made the active and inactive calls. The calls are words filed in the database; no cut-off is given here.

A short description of data set [1]: Cytotoxicity against C57BL/6 mouse BMDM cells assessed as cell viability at 0.1 uM incubated for 4 hrs by CCK-8 assay relative to control. The format is toxicity, cell-based. As to conditions: bone marrow-derived macrophages (BMDM cells), read-out: Activity.
In data set [2] the test system is BMDM. Briefly: Inhibition of NLRP3 inflammasome activation in LPS-induced C57BL/6 mouse BMDM cells assessed as reduction in IL-1beta release at 0.1 uM preincubated with LPS for 1 hrs followed by compound addition and measured after 2 hrs by ELISA relative to control. The format is cell-based.
The target of data set [3] is Serine/threonine-protein kinase Nek7 (Homo sapiens, UniProt Q8TDX7). Kind of data set: Inhibition of N-terminal GST-tagged full-length recombinant human NEK7 extracted from baculovirus infected in Sf9 cells preincubated for 20 mins followed by [32P]-ATP addition and measured after 2 hrs.
Chain of Serine/threonine-protein kinase Nek7 (Q8TDX7 whole entry): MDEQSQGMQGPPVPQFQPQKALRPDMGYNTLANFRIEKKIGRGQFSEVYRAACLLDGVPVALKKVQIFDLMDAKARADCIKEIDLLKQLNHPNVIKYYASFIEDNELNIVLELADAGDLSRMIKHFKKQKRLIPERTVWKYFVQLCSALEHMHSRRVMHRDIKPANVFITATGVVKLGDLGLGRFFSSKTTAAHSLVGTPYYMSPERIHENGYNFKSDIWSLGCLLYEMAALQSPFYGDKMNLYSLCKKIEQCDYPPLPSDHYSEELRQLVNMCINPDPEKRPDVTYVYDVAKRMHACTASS
Data set [4] is described as follows: Cytotoxicity against C57BL/6 mouse BMDM cells assessed as cell viability incubated for 4 hrs by CCK-8 assay. The format is toxicity, cell-based. Conditions: bone marrow-derived macrophages (BMDM cells).
Data set [5] in a line: Selectivity index, ratio of CC50 for C57BL/6 mouse BMDM cells to IC50 for Inhibition of NLRP3 inflammasome activation in LPS-induced C57BL/6 mouse BMDM cells assessed as reduction in IL-1beta release. As to conditions: bone marrow-derived macrophages (BMDM cells), read-out: Ratio CC50/IC50. The format is toxicity, cell-based.
The nature of data set [6]: Inhibition of NLRP3 inflammasome activation in LPS-induced C57BL/6 mouse BMDM cells assessed as reduction in IL-1beta release preincubated with LPS for 1 hrs followed by compound addition and measured after 2 hrs by ELISA. The format is cell-based. Conditions: C57BL/6, BMDM. A general note: ELISA stands for enzyme-linked immunosorbent assay.
The target of data set [7] is NLRP3-NEK7 (Mus musculus) (UniProt Q8R4B8+Q9ES74). Briefly: Inhibition of NLRP3/NEK7 protein-protein interaction in LPS-induced C57BL/6 mouse BMDM cells by co-immunoprecipitation based Western blot analysis. Type of data set: cell-based. For orientation: In western blotting, separated proteins are transferred to a membrane and probed.
Chain of NLRP3-NEK7 (Mus musculus) (Q8R4B8 whole entry, looked up): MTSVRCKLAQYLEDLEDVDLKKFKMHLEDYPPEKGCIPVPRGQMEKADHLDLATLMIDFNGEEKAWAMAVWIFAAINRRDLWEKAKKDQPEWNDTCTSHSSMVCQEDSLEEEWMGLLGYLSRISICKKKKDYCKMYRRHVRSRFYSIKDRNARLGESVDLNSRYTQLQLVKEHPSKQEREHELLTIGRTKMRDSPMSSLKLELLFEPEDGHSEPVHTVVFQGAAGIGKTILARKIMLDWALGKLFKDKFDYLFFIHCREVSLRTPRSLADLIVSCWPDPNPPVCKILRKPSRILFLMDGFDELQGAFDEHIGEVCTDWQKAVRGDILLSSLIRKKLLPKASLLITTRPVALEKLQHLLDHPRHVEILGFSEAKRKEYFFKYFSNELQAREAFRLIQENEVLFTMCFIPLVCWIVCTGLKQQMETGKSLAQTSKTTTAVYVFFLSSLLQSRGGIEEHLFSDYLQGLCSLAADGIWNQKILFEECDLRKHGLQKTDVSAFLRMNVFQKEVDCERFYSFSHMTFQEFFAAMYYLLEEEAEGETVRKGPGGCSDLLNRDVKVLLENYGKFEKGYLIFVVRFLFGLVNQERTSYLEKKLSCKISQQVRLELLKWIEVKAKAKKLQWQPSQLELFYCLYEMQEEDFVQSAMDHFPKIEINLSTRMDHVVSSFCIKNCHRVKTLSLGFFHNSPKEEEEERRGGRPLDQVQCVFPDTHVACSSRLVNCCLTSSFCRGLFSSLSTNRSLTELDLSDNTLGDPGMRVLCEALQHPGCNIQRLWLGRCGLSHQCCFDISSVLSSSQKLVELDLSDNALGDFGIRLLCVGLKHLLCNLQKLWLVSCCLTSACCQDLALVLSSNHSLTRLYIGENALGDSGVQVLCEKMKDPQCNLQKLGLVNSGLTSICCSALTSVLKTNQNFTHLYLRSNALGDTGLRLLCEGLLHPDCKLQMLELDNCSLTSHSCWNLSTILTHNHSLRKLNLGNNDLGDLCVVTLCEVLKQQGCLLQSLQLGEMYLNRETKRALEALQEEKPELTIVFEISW
Chain of NLRP3-NEK7 (Mus musculus) (Q9ES74 whole entry, looked up): as the sequence (Q8TDX7 whole entry) above, with P14T, A52S, E150D, M273I, V285I, T286A, S302T counted along it
The test system of data set [8] is BMDM. Kind of data set: Binding affinity to NEK7 in LPS-primed C57BL/6 mouse BMDM cells assessed as thermal stabilization preincubated with LPS for 1 hrs followed by compound addition and incubated for 2 hrs under 48 to 53 degreeC by CETSA. Type of data set: cell-based.

Consider `CC(=O)Nc1ccc(-c2ccc(NC(=O)Nc3ccc(CN4CCN(C)CC4)cc3)c(F)c2)cn1`, for which the viability at 4 h, 0.1 µM in data set [1] is 94.9%.

Broadly, the inhibition is the drop in the measured response relative to a control, in per cent. Take `CN1CCN(Cc2ccc(NC(=O)Nc3ccc(-c4ccnc(N)n4)cc3F)cc2C(F)(F)F)CC1`: the viability at 4 h, 0.1 µM in data set [1] worked out at 78%. In the data set with BMDM [2], the inhibition was 25.7%.

As usually defined, the IC50 is the midpoint of a concentration-inhibition curve. Take `CN1CCN(Cc2ccc(NC(=O)Nc3ccc(-c4cn(C5CC5)c5ncnc(N)c45)cc3F)cc2C(F)(F)F)CC1`: the viability at 4 h, 0.1 µM in data set [1] amounted to 17.2%. In addition, the IC50 in data set [3] is less than 100 nM.

Turning to `CN1CCN(Cc2ccc(NC(=O)Nc3ccc(-c4nccnc4N)cc3F)cc2C(F)(F)F)CC1`, the viability at 4 h, 0.1 µM in data set [1] came out at 107%. In addition, the inhibition in the data set on BMDM [2] came to 28.2%.

Consider `CN1CCN(Cc2ccc(NC(=O)Nc3ccc(-c4cccnc4N)cc3F)cc2C(F)(F)F)CC1`, for which the viability at 4 h, 0.1 µM in data set [1] is 65%.

Take `CNc1ccc(-c2ccc(NC(=O)Nc3ccc(CN4CCN(C)CC4)c(C(F)(F)F)c3)c(F)c2)cn1`: the viability at 4 h, 0.1 µM in data set [1] is 95.5%. In addition, the inhibition with BMDM [2] is 41.5%.

As for `CN1CCN(Cc2ccc(NC(=O)Nc3ccc(-c4nc(N)c5ccccc5n4)cc3F)cc2C(F)(F)F)CC1`, in data set [1], the viability at 4 h, 0.1 µM came to 108%.

Regarding `CC(=O)Nc1ccc(-c2ccc(C(=O)Nc3ccc(CN4CCN(C)CC4)c(C(F)(F)F)c3)c(F)c2)cn1`, in data set [1], the viability at 4 h, 0.1 µM worked out at 90.4%.

For `CC(=O)Nc1ccc(-c2ccc(NC(=O)Nc3cccc(C(F)(F)F)c3)c(F)c2)cn1`, the viability at 4 h, 0.1 µM in data set [1] came to 96.4%. Besides, the inhibition in the data set with BMDM [2] is -7.98%.

For the compound `CN1CCN(Cc2ccc(NC(=O)Nc3ccc(-c4cccc(N)n4)cc3F)cc2C(F)(F)F)CC1`, the viability at 4 h, 0.1 µM in data set [1] stood at 109%.

As for `CN1CCN(Cc2ccc(NC(=O)Nc3ccc(-c4cncnc4N)cc3F)cc2C(F)(F)F)CC1`, the viability at 4 h, 0.1 µM in data set [1] amounted to 106%. Moreover, the inhibition with BMDM [2] is -1.08%.

The CC50 is the concentration at which the toxic effect on the cells reaches its halfway point. As to `CC(=O)Nc1ccc(-c2ccc(NC(=O)Nc3ccc(CN4CCN(C)CC4)c(C(F)(F)F)c3)c(F)c2)cn1`, in data set [1], the viability at 4 h, 0.1 µM came out at 98.3%. In addition, the CC50 at 4 h in data set [4] was 3840 nM. Moreover, the selectivity ratio in data set [5] worked out at 80.3. Also, in data set [6], the IC50 is 48 nM. Also, the inhibition entry in data set [7] is “Active”. The Activity entry in the data set on BMDM [8] is given as “Active; Compound Is Capable Of Binding To Nek7”. In the data set on BMDM [2], the inhibition was determined as 90.3%.

With `COc1ccc(-c2ccc(NC(=O)Nc3ccc(CN4CCN(C)CC4)c(C(F)(F)F)c3)c(F)c2)cn1`, in data set [1], the viability at 4 h, 0.1 µM amounted to 104%.

As to `CN1CCN(Cc2ccc(NC(=O)Nc3ccc(-c4nc(N)cc5ccccc45)cc3F)cc2C(F)(F)F)CC1`, the viability at 4 h, 0.1 µM in data set [1] was 122%. Also, the inhibition in the data set on BMDM [2] was determined as 30.6%.

For `CN1CCN(Cc2ccc(NC(=O)Nc3ccc(-c4ccc(N)cn4)cc3F)cc2C(F)(F)F)CC1`, the viability at 4 h, 0.1 µM in data set [1] is 104%.

Consider `CN1CCN(Cc2ccc(NC(=O)Nc3ccc(-c4ccnc(N)c4)cc3F)cc2C(F)(F)F)CC1`, for which, in data set [1], the viability at 4 h, 0.1 µM was 112%. The inhibition with BMDM [2] stood at 3.67%.

`CN1CCN(Cc2ccc(NC(=O)Nc3ccc(-c4cc5ccccc5nc4N)cc3F)cc2C(F)(F)F)CC1`: in data set [1], the viability at 4 h, 0.1 µM was 86%.

Consider `CN1CCN(Cc2ccc(NC(=O)Nc3ccc(-c4ncc(N)cn4)cc3F)cc2C(F)(F)F)CC1`, for which the viability at 4 h, 0.1 µM in data set [1] is 71.8%.

Consider `CN1CCN(Cc2ccc(NC(=O)Nc3ccc(-c4ccc(O)nc4)cc3F)cc2C(F)(F)F)CC1`, for which the viability at 4 h, 0.1 µM in data set [1] was found to be 106%.

For `CC(=O)Nc1ccc(-c2ccc(NC(=O)c3ccc(CN4CCN(C)CC4)c(C(F)(F)F)c3)c(F)c2)cn1`, the viability at 4 h, 0.1 µM in data set [1] was determined as 92.6%. The inhibition in the data set with BMDM [2] was found to be 0%.

For the compound `CN1CCN(Cc2ccc(NC(=O)Nc3ccc(-c4cnc5cccnn45)cc3F)cc2C(F)(F)F)CC1`, in data set [1], the viability at 4 h, 0.1 µM was determined as 91.4%. For the same compound, in the data set on BMDM [2], the inhibition is -9.39%.

`CN1CCN(Cc2ccc(NC(=O)Nc3ccc(-c4ccc(N)nc4)cc3F)cc2C(F)(F)F)CC1`: the viability at 4 h, 0.1 µM in data set [1] came out at 86%. For the same compound, the CC50 at 4 h in data set [4] is 247 nM. Moreover, the selectivity ratio in data set [5] was determined as 8.26. The IC50 in data set [6] amounted to 30 nM. Further, the inhibition in the data set with BMDM [2] was found to be 82.3%.

With `CN1CCN(Cc2ccc(NC(=O)Nc3ccc(-c4c(N)ncc5ccccc45)cc3F)cc2C(F)(F)F)CC1`, the viability at 4 h, 0.1 µM in data set [1] is 61.1%.

As for `CC(C)(O)c1coc(S(=O)(=O)NC(=O)Nc2c3c(cc4c2CCC4)CCC3)c1`, the CC50 at 4 h in data set [4] is greater than 10000 nM. Moreover, the selectivity ratio in data set [5] is greater than 118. Moreover, the IC50 in data set [6] came to 85 nM. Also, the inhibition in the data set on BMDM [2] turned out to be 66.7%.

With `CN1CCN(Cc2ccc(NC(=O)Nc3ccc(-c4cnc(N)c5ccccc45)cc3F)cc2C(F)(F)F)CC1`, the viability at 4 h, 0.1 µM in data set [1] is 108%. In addition, the inhibition in the data set with BMDM [2] is -7.76%.
